In ChEMBL document CHEMBL1671617, “Correlation of antimicrobial resistance with beta-lactamases, the OmpA-like porin, and efflux pumps in clinical isolates of Acinetobacter baumannii endemic to New York City” (2008):
Values after ≈ are worked out from the molar mass of the structure shown.

What was measured:
Format in all cases: functional
Acinetobacter baumannii [1] = test: Antimicrobial activity against ISAba1 linked with the blaOXA-51-type beta-lactamase harboring Acinetobacter baumannii alpha clonal group isolate 1 expressing ampC, ompA, adeB, adeM by Etest method
Acinetobacter baumannii [2] = test: Antimicrobial activity against Acinetobacter baumannii alpha clonal group isolate 2 expressing ampC, ompA, adeB, adeM, aacC1, aadA1 by Etest method
Acinetobacter baumannii [3] = test: Antimicrobial activity against Acinetobacter baumannii alpha clonal group isolate 3 expressing ampC, ompA, adeB, adeM, aacC1, aadA1 by Etest method
Acinetobacter baumannii [4] = test: Antimicrobial activity against Acinetobacter baumannii alpha clonal group isolate 4 expressing ampC, ompA, adeB, adeM, aacC1, aadA1 by Etest method
Acinetobacter baumannii [5] = test: Antimicrobial activity against Acinetobacter baumannii alpha clonal group isolate 5 expressing ampC, ompA, adeB, adeM, aacC1, aadA1 by Etest method
Acinetobacter baumannii [6] = test: Antimicrobial activity against ISAba1 linked with the blaOXA-51-type beta-lactamase harboring Acinetobacter baumannii alpha clonal group isolate 6 expressing ampC, ompA, adeB, adeM, aacC1, aadA1 by Etest method
Acinetobacter baumannii [7] = test: Antimicrobial activity against ISAba1 linked with the blaOXA-51-type beta-lactamase harboring Acinetobacter baumannii alpha clonal group isolate 7 expressing ampC, ompA, adeB, adeM, blaSHV-5 by Etest method
Acinetobacter baumannii [8] = test: Antimicrobial activity against ISAba1 linked with the blaOXA-51-type beta-lactamase harboring Acinetobacter baumannii alpha clonal group isolate 8 expressing ampC, ompA, adeB, adeM, aacC1, aadA1 by Etest method
Acinetobacter baumannii [9] = test: Antimicrobial activity against ISAba1 linked with the blaOXA-51-type beta-lactamase harboring Acinetobacter baumannii beta clonal group isolate 9 expressing ampC, ompA, adeB, adeM by Etest method
Acinetobacter baumannii [10] = test: Antimicrobial activity against ISAba1 linked with the blaOXA-51-type beta-lactamase harboring Acinetobacter baumannii beta clonal group isolate 10 expressing ompA, adeB, adeM, aacA4, blaSHV-5 by Etest method
Acinetobacter baumannii [11] = test: Antimicrobial activity against ISAba1 linked with the blaOXA-51-type beta-lactamase harboring Acinetobacter baumannii beta clonal group isolate 11 expressing ompA, adeB, adeM, blaSHV-5 by Etest method
Acinetobacter baumannii [12] = test: Antimicrobial activity against ISAba1 linked with the blaOXA-51-type beta-lactamase harboring Acinetobacter baumannii beta clonal group isolate 12 expressing ompA, adeB, adeM, aacA4, aacC2, blaSHV-5 by Etest method
Acinetobacter baumannii [13] = test: Antimicrobial activity against ISAba1 linked with the blaOXA-51-type beta-lactamase harboring Acinetobacter baumannii beta clonal group isolate 13 expressing ompA, adeB, adeM, aacA4, blaSHV-5 by Etest method
Acinetobacter baumannii [14] = test: Antimicrobial activity against ISAba1 linked with the blaOXA-51-type beta-lactamase harboring Acinetobacter baumannii beta clonal group isolate 14 expressing ompA, adeB, adeM, aacA4, blaSHV-5 by Etest method
Acinetobacter baumannii [15] = test: Antimicrobial activity against ISAba1 linked with the blaOXA-51-type beta-lactamase harboring Acinetobacter baumannii beta clonal group isolate 15 expressing ompA, adeB, adeM, aacA4, blaSHV-5 by Etest method
Acinetobacter baumannii [16] = test: Antimicrobial activity against ISAba1 linked with the blaOXA-51-type beta-lactamase harboring Acinetobacter baumannii beta clonal group isolate 16 expressing ompA, adeB, adeM, aacA4, blaSHV-5 by Etest method
Acinetobacter baumannii [17] = test: Antimicrobial activity against ISAba1 linked with the blaOXA-51-type beta-lactamase harboring Acinetobacter baumannii beta clonal group isolate 17 expressing ompA, adeB, adeM, aacA4, blaSHV-5 by Etest method
Acinetobacter baumannii [18] = test: Antimicrobial activity against ISAba1 linked with the blaOXA-51-type beta-lactamase harboring Acinetobacter baumannii beta clonal group isolate 18 expressing ompA, adeB, adeM, aacA4, blaSHV-5 by Etest method
Acinetobacter baumannii [19] = test: Antimicrobial activity against ISAba1 linked with the blaOXA-51-type beta-lactamase harboring Acinetobacter baumannii zeta clonal group isolate 19 expressing ampC, ompA, adeB, adeM, aacC2 by Etest method
Acinetobacter baumannii [20] = test: Antimicrobial activity against ISAba1 linked with the blaOXA-51-type beta-lactamase harboring Acinetobacter baumannii zeta clonal group isolate 20 expressing ampC, ompA, adeB, adeM, aacC2 by Etest method
Acinetobacter baumannii [21] = test: Antimicrobial activity against ISAba1 linked with the blaOXA-51-type beta-lactamase harboring Acinetobacter baumannii zeta clonal group isolate 21 expressing ampC, ompA, adeB, adeM, aacC2, blaSHV-5 by Etest method
Acinetobacter baumannii [22] = test: Antimicrobial activity against ISAba1 linked with the blaOXA-51-type beta-lactamase harboring Acinetobacter baumannii zeta clonal group isolate 22 expressing ampC, ompA, adeB, adeM, aadA1, aacA4, aacC2, blaSHV-5 by Etest method
Acinetobacter baumannii [23] = test: Antimicrobial activity against ISAba1 linked with the blaOXA-51-type beta-lactamase harboring Acinetobacter baumannii zeta clonal group isolate 23 expressing ampC, ompA, adeB, adeM, aadA1, aacA4, aacC2, aphA6 by Etest method
Acinetobacter baumannii [24] = test: Antimicrobial activity against ISAba1 linked with the blaOXA-51-type beta-lactamase harboring Acinetobacter baumannii zeta clonal group isolate 24 expressing ampC, ompA, adeB, adeM, aadA1, aacA4, aacC2, blaSHV-5 by Etest method
Acinetobacter baumannii [25] = test: Antimicrobial activity against ISAba1 linked with the blaOXA-51-type beta-lactamase harboring Acinetobacter baumannii zeta clonal group isolate 25 expressing ampC, ompA, adeB, adeM, aadA1, aacA4, aacC2, blaSHV-5 by Etest method
Acinetobacter baumannii [26] = test: Antimicrobial activity against ISAba1 linked with the blaOXA-51-type beta-lactamase harboring Acinetobacter baumannii zeta clonal group isolate 26 expressing ampC, ompA, adeB, adeM, aadA1, aacA4, aacC2, blaSHV-5 by Etest method
Acinetobacter baumannii [27] = test: Antimicrobial activity against Acinetobacter baumannii lambda clonal group isolate 27 expressing ampC, ompA, adeB, adeM, aadB, aadA1 by Etest method
Acinetobacter baumannii [28] = test: Antimicrobial activity against ISAba1 linked with the blaOXA-51-type beta-lactamase harboring Acinetobacter baumannii lambda clonal group isolate 28 expressing ampC, ompA, adeM, aadB, aadA1 by Etest method
Acinetobacter baumannii [29] = test: Antimicrobial activity against ISAba1 linked with the blaOXA-51-type beta-lactamase harboring Acinetobacter baumannii lambda clonal group isolate 29 expressing ampC, ompA, adeM, aadB, aadA1 by Etest method
Acinetobacter baumannii [30] = test: Antimicrobial activity against ISAba1 linked with the blaOXA-51-type beta-lactamase harboring Acinetobacter baumannii lambda clonal group isolate 30 expressing ampC, ompA, adeB, adeM, aadB, aadA1 by Etest method
Acinetobacter baumannii [31] = test: Antimicrobial activity against Acinetobacter baumannii nu clonal group isolate 31 expressing ampC, ompA, adeB, adeM, aadB, aadA2 by Etest method
Acinetobacter baumannii [32] = test: Antimicrobial activity against Acinetobacter baumannii nu clonal group isolate 32 expressing ampC, ompA, adeB, adeM, aadB, aadA2 by Etest method
Acinetobacter baumannii [33] = test: Antimicrobial activity against Acinetobacter baumannii nu clonal group isolate 33 expressing ampC, ompA, adeB, adeM by Etest method
Acinetobacter baumannii [34] = test: Antimicrobial activity against Acinetobacter baumannii nu clonal group isolate 34 expressing ampC, ompA, adeB, adeM by Etest method
Acinetobacter baumannii [35] = test: Antimicrobial activity against Acinetobacter baumannii eta clonal group isolate 35 expressing ampC, ompA, adeB, adeM by Etest method
Acinetobacter baumannii [36] = test: Antimicrobial activity against Acinetobacter baumannii eta clonal group isolate 36 expressing ampC, ompA, adeB, adeM by Etest method
Acinetobacter baumannii [37] = test: Antimicrobial activity against Acinetobacter baumannii unique clonal group isolate 37 expressing ampC, ompA, adeB, adeM by Etest method
Acinetobacter baumannii [38] = test: Antimicrobial activity against Acinetobacter baumannii unique clonal group isolate 38 expressing ampC, ompA, adeB, adeM by Etest method
Acinetobacter baumannii [39] = test: Antimicrobial activity against Acinetobacter baumannii unique clonal group isolate 39 expressing ampC, ompA, adeM by Etest method
Acinetobacter baumannii [40] = test: Antimicrobial activity against ISAba1 linked with the blaOXA-51-type beta-lactamase harboring Acinetobacter baumannii unique clonal group isolate 40 expressing ampC, ompA, adeB, adeM, aadA1, aacA4, aacC2, blaSHV-5 by Etest method

## NCC[C@H](O)C(=O)N[C@@H]1C[C@H](N)[C@@H](O[C@H]2O[C@H](CN)[C@@H](O)[C@H](O)[C@H]2O)[C@H](O)[C@H]1O[C@H]1O[C@H](CO)[C@@H](O)[C@H](N)[C@H]1O [AMIKACIN]
Acinetobacter baumannii [1]
  MIC: 1.5 µg/mL (≈ 2.56 µM)
Acinetobacter baumannii [2]
  MIC: 2 µg/mL (≈ 3.42 µM)
Acinetobacter baumannii [3]
  MIC: 2 µg/mL (≈ 3.42 µM)
Acinetobacter baumannii [4]
  MIC: 2 µg/mL (≈ 3.42 µM)
Acinetobacter baumannii [5]
  MIC: 2 µg/mL (≈ 3.42 µM)
Acinetobacter baumannii [6]
  MIC: 1.5 µg/mL (≈ 2.56 µM)
Acinetobacter baumannii [7]
  MIC: 2 µg/mL (≈ 3.42 µM)
Acinetobacter baumannii [8]
  MIC: 4 µg/mL (≈ 6.83 µM)
Acinetobacter baumannii [9]
  MIC: 4 µg/mL (≈ 6.83 µM)
Acinetobacter baumannii [10]
  MIC: 6 µg/mL (≈ 10.2 µM)
Acinetobacter baumannii [11]
  MIC: 3 µg/mL (≈ 5.12 µM)
Acinetobacter baumannii [12]
  MIC: 24 µg/mL (≈ 41 µM)
Acinetobacter baumannii [13]
  MIC: 8 µg/mL (≈ 13.7 µM)
Acinetobacter baumannii [14]
  MIC: 8 µg/mL (≈ 13.7 µM)
Acinetobacter baumannii [15]
  MIC: 8 µg/mL (≈ 13.7 µM)
Acinetobacter baumannii [16]
  MIC: 8 µg/mL (≈ 13.7 µM)
Acinetobacter baumannii [17]
  MIC: 8 µg/mL (≈ 13.7 µM)
Acinetobacter baumannii [18]
  MIC: 24 µg/mL (≈ 41 µM)
Acinetobacter baumannii [19]
  MIC: 3 µg/mL (≈ 5.12 µM)
Acinetobacter baumannii [20]
  MIC: 3 µg/mL (≈ 5.12 µM)
Acinetobacter baumannii [21]
  MIC: 3 µg/mL (≈ 5.12 µM)
Acinetobacter baumannii [22]
  MIC: 48 µg/mL (≈ 82 µM)
Acinetobacter baumannii [23]
  MIC: 24 µg/mL (≈ 41 µM)
Acinetobacter baumannii [24]
  MIC: 32 µg/mL (≈ 54.6 µM)
Acinetobacter baumannii [25]
  MIC: 32 µg/mL (≈ 54.6 µM)
Acinetobacter baumannii [26]
  MIC: 32 µg/mL (≈ 54.6 µM)
Acinetobacter baumannii [27]
  MIC: < 0.5 µg/mL
Acinetobacter baumannii [28]
  MIC: 3 µg/mL (≈ 5.12 µM)
Acinetobacter baumannii [29]
  MIC: 3 µg/mL (≈ 5.12 µM)
Acinetobacter baumannii [30]
  MIC: 48 µg/mL (≈ 82 µM)
Acinetobacter baumannii [31]
  MIC: 4 µg/mL (≈ 6.83 µM)
Acinetobacter baumannii [32]
  MIC: 4 µg/mL (≈ 6.83 µM)
Acinetobacter baumannii [33]
  MIC: 3 µg/mL (≈ 5.12 µM)
Acinetobacter baumannii [34]
  MIC: 3 µg/mL (≈ 5.12 µM)
Acinetobacter baumannii [35]
  MIC: 3 µg/mL (≈ 5.12 µM)
Acinetobacter baumannii [36]
  MIC: 3 µg/mL (≈ 5.12 µM)
Acinetobacter baumannii [37]
  MIC: 6 µg/mL (≈ 10.2 µM)
Acinetobacter baumannii [38]
  MIC: 1.5 µg/mL (≈ 2.56 µM)
Acinetobacter baumannii [39]
  MIC: 1.5 µg/mL (≈ 2.56 µM)
Acinetobacter baumannii [40]
  MIC: 32 µg/mL (≈ 54.6 µM)

## CC(C)(O/N=C(\C(=O)N[C@@H]1C(=O)N2C(C(=O)[O-])=C(C[n+]3ccccc3)CS[C@H]12)c1csc(N)n1)C(=O)O [CEFTAZIDIME]
Acinetobacter baumannii [1]
  MIC: > 256 µg/mL
Acinetobacter baumannii [2]
  MIC: > 256 µg/mL
Acinetobacter baumannii [3]
  MIC: > 256 µg/mL
Acinetobacter baumannii [4]
  MIC: > 256 µg/mL
Acinetobacter baumannii [5]
  MIC: > 256 µg/mL
Acinetobacter baumannii [6]
  MIC: > 256 µg/mL
Acinetobacter baumannii [7]
  MIC: > 256 µg/mL
Acinetobacter baumannii [8]
  MIC: 96 µg/mL (≈ 176 µM)
Acinetobacter baumannii [9]
  MIC: 48 µg/mL (≈ 87.8 µM)
Acinetobacter baumannii [10]
  MIC: 48 µg/mL (≈ 87.8 µM)
Acinetobacter baumannii [11]
  MIC: 128 µg/mL (≈ 234 µM)
Acinetobacter baumannii [12]
  MIC: > 256 µg/mL
Acinetobacter baumannii [13]
  MIC: > 48 µg/mL
Acinetobacter baumannii [14]
  MIC: > 48 µg/mL
Acinetobacter baumannii [15]
  MIC: > 48 µg/mL
Acinetobacter baumannii [16]
  MIC: > 48 µg/mL
Acinetobacter baumannii [17]
  MIC: > 48 µg/mL
Acinetobacter baumannii [18]
  MIC: 96 µg/mL (≈ 176 µM)
Acinetobacter baumannii [19]
  MIC: 24 µg/mL (≈ 43.9 µM)
Acinetobacter baumannii [20]
  MIC: 24 µg/mL (≈ 43.9 µM)
Acinetobacter baumannii [21]
  MIC: 32 µg/mL (≈ 58.5 µM)
Acinetobacter baumannii [22]
  MIC: > 256 µg/mL
Acinetobacter baumannii [23]
  MIC: 16 µg/mL (≈ 29.3 µM)
Acinetobacter baumannii [24]
  MIC: > 256 µg/mL
Acinetobacter baumannii [25]
  MIC: > 256 µg/mL
Acinetobacter baumannii [26]
  MIC: > 256 µg/mL
Acinetobacter baumannii [27]
  MIC: > 256 µg/mL
Acinetobacter baumannii [28]
  MIC: > 256 µg/mL
Acinetobacter baumannii [29]
  MIC: > 256 µg/mL
Acinetobacter baumannii [30]
  MIC: > 256 µg/mL
Acinetobacter baumannii [31]
  MIC: 4 µg/mL (≈ 7.32 µM)
Acinetobacter baumannii [32]
  MIC: 4 µg/mL (≈ 7.32 µM)
Acinetobacter baumannii [33]
  MIC: 6 µg/mL (≈ 11 µM)
Acinetobacter baumannii [34]
  MIC: 6 µg/mL (≈ 11 µM)
Acinetobacter baumannii [35]
  MIC: 12 µg/mL (≈ 22 µM)
Acinetobacter baumannii [36]
  MIC: 12 µg/mL (≈ 22 µM)
Acinetobacter baumannii [37]
  MIC: 12 µg/mL (≈ 22 µM)
Acinetobacter baumannii [38]
  MIC: 16 µg/mL (≈ 29.3 µM)
Acinetobacter baumannii [39]
  MIC: 4 µg/mL (≈ 7.32 µM)
Acinetobacter baumannii [40]
  MIC: > 256 µg/mL
